IC50 and ΔTm data for 14 compounds are collected here from ChEMBL document CHEMBL1145498, “A systematic interaction map of validated kinase inhibitors with Ser/Thr kinases” (Proc Natl Acad Sci U S A, 2007).

Experiment [1] has as its target Epidermal growth factor receptor (Homo sapiens, UniProt P00533).
Experiment [2] concerns the target 5'-AMP-activated protein kinase catalytic subunit alpha-2 (Homo sapiens) (UniProt P54646).
The target of experiment [3] is Calcium/calmodulin-dependent protein kinase type II subunit gamma (Homo sapiens) (UniProt Q13555).
Sequence of Calcium/calmodulin-dependent protein kinase type II subunit gamma (Homo sapiens) (Q13555 whole entry): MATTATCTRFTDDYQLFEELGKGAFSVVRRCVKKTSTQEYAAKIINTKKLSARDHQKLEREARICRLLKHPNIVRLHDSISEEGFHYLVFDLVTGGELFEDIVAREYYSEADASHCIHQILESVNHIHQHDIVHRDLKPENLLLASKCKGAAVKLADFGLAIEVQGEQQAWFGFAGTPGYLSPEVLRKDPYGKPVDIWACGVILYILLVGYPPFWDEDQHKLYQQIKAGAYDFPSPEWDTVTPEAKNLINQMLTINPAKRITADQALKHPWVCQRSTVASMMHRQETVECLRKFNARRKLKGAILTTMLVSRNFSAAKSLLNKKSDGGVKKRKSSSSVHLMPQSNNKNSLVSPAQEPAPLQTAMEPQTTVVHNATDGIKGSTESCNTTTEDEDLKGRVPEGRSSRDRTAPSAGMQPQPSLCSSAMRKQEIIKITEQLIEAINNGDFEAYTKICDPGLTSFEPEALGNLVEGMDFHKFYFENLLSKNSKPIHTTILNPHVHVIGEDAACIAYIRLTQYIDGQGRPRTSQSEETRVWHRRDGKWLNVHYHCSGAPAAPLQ
For experiment [4], the target named is T1, Calcium/calmodulin-dependent protein kinase type IV (Homo sapiens) (UniProt Q16566).
T1 sequence (whole entry): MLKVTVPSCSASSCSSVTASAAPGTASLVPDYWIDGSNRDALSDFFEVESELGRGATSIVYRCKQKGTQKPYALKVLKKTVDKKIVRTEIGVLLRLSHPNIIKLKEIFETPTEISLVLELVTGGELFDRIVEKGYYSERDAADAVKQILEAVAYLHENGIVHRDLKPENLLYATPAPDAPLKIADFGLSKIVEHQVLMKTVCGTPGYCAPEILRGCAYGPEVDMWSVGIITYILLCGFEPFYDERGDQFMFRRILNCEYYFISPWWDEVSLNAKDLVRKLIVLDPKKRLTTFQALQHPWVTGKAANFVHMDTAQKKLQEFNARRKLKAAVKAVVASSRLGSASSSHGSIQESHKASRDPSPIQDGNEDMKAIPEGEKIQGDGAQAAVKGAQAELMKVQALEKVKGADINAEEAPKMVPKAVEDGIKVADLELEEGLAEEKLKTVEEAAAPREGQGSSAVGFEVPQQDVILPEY

In experiment [5] the target is Calcium/calmodulin-dependent protein kinase kinase 2 (Homo sapiens, UniProt Q96RR4).
Sequence of Calcium/calmodulin-dependent protein kinase kinase 2 (Q96RR4 2-588 limits assumed): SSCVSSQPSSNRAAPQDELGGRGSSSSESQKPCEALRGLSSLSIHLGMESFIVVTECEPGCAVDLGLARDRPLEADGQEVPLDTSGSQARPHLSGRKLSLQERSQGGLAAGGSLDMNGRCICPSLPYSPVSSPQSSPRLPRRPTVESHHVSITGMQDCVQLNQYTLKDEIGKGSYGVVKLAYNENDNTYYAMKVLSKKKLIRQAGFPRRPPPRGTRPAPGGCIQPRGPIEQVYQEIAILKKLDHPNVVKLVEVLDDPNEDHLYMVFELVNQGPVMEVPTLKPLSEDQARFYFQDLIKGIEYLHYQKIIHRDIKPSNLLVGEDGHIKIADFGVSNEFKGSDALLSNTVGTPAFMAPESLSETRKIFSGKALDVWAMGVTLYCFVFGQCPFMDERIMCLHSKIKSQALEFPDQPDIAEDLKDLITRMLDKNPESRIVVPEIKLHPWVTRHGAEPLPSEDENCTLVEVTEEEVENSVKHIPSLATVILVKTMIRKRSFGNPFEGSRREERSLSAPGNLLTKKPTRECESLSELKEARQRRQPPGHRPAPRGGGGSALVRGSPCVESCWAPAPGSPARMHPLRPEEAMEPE
The target in experiment [6] is Cyclin-dependent kinase-like 1 (Homo sapiens) (UniProt Q00532).
Sequence of Cyclin-dependent kinase-like 1 (Homo sapiens) (Q00532 whole entry): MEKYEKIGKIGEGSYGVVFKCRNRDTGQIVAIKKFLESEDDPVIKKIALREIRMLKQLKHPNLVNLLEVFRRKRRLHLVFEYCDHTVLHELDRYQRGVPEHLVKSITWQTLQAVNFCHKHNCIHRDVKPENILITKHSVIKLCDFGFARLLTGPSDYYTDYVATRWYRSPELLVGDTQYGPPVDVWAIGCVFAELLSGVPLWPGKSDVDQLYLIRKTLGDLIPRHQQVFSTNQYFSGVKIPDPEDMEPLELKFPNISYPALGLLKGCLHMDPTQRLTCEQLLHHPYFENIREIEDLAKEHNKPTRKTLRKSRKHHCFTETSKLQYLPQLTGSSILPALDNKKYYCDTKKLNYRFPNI
In experiment [7] the target is Serine/threonine-protein kinase PAK 6 (Homo sapiens) (UniProt Q9NQU5).
Sequence of Serine/threonine-protein kinase PAK 6 (Homo sapiens) (Q9NQU5 whole entry, looked up): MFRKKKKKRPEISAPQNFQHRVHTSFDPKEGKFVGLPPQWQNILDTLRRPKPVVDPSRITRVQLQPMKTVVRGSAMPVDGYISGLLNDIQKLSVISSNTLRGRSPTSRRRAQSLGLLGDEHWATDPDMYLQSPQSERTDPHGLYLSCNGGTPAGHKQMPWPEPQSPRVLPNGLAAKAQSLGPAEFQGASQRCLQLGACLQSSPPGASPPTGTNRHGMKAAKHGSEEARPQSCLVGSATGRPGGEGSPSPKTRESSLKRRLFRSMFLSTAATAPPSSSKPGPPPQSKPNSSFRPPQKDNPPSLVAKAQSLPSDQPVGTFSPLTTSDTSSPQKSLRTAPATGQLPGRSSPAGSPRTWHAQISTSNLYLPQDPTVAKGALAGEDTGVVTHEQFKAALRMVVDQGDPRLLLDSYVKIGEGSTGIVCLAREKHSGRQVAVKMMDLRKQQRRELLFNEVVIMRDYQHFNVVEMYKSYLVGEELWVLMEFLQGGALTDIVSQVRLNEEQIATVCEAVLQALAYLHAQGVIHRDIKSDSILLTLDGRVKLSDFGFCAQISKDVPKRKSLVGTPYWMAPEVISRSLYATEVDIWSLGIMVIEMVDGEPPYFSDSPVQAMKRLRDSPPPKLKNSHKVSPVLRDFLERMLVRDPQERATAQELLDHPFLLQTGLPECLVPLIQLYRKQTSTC
In experiment [8] the target is Ribosomal protein S6 kinase alpha-3 (Homo sapiens) (UniProt P51812).
Sequence of Ribosomal protein S6 kinase alpha-3 (Homo sapiens) (P51812 whole entry): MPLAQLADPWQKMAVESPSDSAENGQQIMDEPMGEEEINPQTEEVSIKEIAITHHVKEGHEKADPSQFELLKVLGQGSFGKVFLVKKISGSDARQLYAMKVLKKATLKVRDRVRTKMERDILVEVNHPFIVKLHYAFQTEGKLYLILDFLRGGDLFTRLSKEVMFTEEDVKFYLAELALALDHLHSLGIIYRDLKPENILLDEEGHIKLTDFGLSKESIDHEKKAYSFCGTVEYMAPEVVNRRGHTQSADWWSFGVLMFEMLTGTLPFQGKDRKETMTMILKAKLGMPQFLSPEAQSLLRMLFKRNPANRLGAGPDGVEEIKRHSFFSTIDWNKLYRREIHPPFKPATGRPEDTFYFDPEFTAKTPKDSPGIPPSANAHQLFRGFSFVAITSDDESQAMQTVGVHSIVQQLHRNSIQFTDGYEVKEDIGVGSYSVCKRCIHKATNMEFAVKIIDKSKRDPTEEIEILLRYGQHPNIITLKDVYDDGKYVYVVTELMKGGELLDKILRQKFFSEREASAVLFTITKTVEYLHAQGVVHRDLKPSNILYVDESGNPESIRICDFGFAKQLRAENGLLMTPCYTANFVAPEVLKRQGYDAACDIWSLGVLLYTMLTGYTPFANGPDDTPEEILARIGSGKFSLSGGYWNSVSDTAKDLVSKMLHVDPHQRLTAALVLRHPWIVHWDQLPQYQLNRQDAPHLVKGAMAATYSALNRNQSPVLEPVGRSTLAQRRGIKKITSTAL
Experiment [9] addresses Serine/threonine-protein kinase 38 (Homo sapiens) (UniProt Q15208).
Experiment [10] concerns the target T2, Serine/threonine-protein kinase VRK1 (Homo sapiens) (UniProt Q99986).
T2 sequence (whole entry): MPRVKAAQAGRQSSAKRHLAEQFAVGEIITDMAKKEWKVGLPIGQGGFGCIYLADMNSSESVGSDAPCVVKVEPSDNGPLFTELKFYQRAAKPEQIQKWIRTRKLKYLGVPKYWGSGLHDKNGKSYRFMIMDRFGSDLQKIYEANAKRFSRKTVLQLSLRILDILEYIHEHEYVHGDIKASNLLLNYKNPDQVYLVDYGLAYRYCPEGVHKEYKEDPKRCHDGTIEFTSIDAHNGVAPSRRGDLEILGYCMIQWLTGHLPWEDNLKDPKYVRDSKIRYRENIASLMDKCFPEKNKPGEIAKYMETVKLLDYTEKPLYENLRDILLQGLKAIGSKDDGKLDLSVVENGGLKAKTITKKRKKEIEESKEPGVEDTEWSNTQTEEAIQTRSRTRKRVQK

Experiment [11] addresses T3, Serine/threonine-protein kinase VRK3 (Homo sapiens) (UniProt Q8IV63).
T3 sequence (whole entry): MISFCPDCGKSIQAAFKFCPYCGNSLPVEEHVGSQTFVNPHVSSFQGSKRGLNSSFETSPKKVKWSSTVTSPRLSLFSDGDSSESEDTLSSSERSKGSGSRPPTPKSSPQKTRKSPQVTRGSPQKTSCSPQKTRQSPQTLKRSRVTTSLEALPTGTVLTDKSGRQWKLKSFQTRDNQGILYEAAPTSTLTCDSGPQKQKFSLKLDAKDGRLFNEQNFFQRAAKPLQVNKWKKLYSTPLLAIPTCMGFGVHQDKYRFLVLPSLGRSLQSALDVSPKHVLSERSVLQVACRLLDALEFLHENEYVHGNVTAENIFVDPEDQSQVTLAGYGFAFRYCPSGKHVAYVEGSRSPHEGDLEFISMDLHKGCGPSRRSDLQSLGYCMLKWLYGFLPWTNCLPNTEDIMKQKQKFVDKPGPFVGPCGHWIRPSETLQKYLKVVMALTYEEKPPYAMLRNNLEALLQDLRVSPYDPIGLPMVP

Experiment [12] has as its target Serine/threonine-protein kinase 25 (Homo sapiens) (UniProt O00506).
The target of experiment [13] is Proto-oncogene tyrosine-protein kinase Src (Homo sapiens, UniProt P12931). In words: Inhibition of Src. As to conditions: read-out: IC50.
Sequence of Proto-oncogene tyrosine-protein kinase Src (P12931 2-536 limits assumed): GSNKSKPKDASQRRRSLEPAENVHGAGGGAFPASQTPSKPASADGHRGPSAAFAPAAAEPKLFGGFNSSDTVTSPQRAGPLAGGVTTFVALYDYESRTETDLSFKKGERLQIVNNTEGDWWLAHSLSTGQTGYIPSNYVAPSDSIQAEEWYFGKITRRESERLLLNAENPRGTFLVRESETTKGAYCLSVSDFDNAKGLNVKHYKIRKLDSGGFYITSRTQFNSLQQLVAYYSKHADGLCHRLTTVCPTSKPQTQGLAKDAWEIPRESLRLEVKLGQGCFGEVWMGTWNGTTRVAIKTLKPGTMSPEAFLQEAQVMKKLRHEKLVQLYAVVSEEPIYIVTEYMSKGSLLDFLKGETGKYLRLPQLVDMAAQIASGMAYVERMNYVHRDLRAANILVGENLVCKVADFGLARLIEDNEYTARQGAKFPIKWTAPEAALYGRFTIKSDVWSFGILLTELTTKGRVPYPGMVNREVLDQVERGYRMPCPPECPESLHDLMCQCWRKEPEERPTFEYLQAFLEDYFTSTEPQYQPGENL

Sequence of 5'-AMP-activated protein kinase catalytic subunit alpha-2 (Homo sapiens) (P54646 whole entry, looked up): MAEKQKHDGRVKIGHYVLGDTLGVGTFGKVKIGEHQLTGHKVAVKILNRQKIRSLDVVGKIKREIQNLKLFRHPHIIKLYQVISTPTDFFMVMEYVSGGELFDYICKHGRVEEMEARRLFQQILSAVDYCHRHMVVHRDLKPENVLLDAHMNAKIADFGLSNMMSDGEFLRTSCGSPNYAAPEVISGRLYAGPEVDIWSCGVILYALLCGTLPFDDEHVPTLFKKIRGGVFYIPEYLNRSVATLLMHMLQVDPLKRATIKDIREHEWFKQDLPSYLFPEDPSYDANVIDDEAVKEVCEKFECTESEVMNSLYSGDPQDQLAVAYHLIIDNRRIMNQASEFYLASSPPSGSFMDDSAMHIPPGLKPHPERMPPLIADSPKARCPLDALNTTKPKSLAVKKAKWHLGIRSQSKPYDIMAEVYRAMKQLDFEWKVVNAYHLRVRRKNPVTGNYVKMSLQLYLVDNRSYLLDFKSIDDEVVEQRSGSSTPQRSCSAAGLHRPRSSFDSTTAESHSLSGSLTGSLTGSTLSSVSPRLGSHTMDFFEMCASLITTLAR
Sequence of Serine/threonine-protein kinase 38 (Homo sapiens) (Q15208 2-465 limits assumed): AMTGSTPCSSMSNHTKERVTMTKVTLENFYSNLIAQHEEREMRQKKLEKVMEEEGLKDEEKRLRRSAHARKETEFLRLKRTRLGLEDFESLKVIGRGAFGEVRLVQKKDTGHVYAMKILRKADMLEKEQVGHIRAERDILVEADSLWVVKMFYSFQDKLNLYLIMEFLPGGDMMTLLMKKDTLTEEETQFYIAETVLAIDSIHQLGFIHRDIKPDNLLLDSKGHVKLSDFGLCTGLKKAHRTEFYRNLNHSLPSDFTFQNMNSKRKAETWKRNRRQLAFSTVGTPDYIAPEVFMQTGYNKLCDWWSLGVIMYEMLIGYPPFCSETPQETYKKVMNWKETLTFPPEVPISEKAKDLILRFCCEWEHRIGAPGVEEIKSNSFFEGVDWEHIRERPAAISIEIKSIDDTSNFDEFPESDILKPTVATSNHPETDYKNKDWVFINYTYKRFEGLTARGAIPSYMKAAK
Sequence of Serine/threonine-protein kinase 25 (Homo sapiens) (O00506 whole entry, looked up): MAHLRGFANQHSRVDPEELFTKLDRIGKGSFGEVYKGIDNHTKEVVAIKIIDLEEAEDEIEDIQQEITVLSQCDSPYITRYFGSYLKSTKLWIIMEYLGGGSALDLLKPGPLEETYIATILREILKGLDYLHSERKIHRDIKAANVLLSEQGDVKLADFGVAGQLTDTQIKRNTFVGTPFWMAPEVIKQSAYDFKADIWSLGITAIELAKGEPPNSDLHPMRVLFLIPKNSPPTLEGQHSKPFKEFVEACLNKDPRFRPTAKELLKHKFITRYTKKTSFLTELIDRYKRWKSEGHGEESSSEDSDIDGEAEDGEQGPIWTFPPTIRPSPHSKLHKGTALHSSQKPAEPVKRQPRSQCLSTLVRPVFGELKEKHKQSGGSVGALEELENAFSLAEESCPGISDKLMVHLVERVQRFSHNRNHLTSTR

For `O=c1ccc2ccc(O)c(O)c2o1` [DAPHNETIN], in experiment [1], half-maximal inhibition (IC50) was put at 7.67 µM. Further, the thermal shift (ΔTm) is -0.1 °C in experiment [2]; 0 °C in experiment [3]; -0.1 °C in experiment [4]; 0.5 °C in experiment [5]; 0.3 °C in experiment [6]; -0.2 °C in [7]. The ΔTm is 0 °C in [8]; 0.3 °C in experiment [9]; 0 °C in experiment [10]; -0.1 °C in experiment [11]; -0.5 °C in experiment [12].

With `CC(C)(C)c1cc(C=C2C(=O)C=CC2=O)cc(C(C)(C)C)c1O`, in [13], the IC50 is 2.2 µM. Moreover, the ΔTm in [2] was -0.1 °C; in [3], 0.3 °C; in experiment [4] it was -1.5 °C; in experiment [5] it was -0.8 °C; in experiment [6], -5.5 °C; in [7], -2.5 °C. Moreover, the ΔTm was 0.5 °C in experiment [8]; 0.4 °C in [9]; -0.6 °C in experiment [10]; -0.2 °C in [11]; 0.6 °C in experiment [12].

With `COC(=O)[C@]1(O)C[C@@H]2O[C@@]1(C)n1c3ccccc3c3c4c(c5c6ccccc6n2c5c31)C(=O)NC4` (single isomer, unassigned), the ΔTm in experiment [2] is 7.6 °C; in experiment [3], 6.5 °C; in experiment [4] it was 1.8 °C; in experiment [5] it was 4.2 °C; in [6], 6.9 °C; in experiment [7] it was 9.7 °C. The ΔTm in experiment [8] is 7.3 °C; in experiment [9], 3.9 °C; in experiment [10] it was 0.2 °C; in [11] it was -0.2 °C; in experiment [12], 4.4 °C.

As for `CCOc1cc(/C=C(\C#N)C(N)=O)cc(CSc2ccccc2)c1O`, the ΔTm in experiment [2] is 0 °C; in [3] it was -0.1 °C; in experiment [4] it was 0.1 °C; in experiment [5] it was -0.1 °C; in experiment [6], -0.1 °C; in experiment [7], -0.4 °C. Further, the ΔTm was 2.1 °C in [8]; 0.3 °C in experiment [9]; -0.1 °C in experiment [10]; -0.6 °C in experiment [11]; 0.6 °C in experiment [12].

On to `Cc1cc2ncc(-c3ccccc3)nc2cc1C`, for which the ΔTm in [2] was -1 °C; in experiment [3], 0.4 °C; in [4], 0.4 °C; in experiment [5], -0.4 °C; in experiment [6] it was -0.3 °C; in experiment [7] it was 0 °C. Besides, the ΔTm in [8] came to 0.2 °C; in [9], 0.5 °C; in experiment [10] it was 1.2 °C; in [11], 1.1 °C; in experiment [12], 0.3 °C.

As to `O=C1Nc2ccc(I)cc2/C1=C1/Nc2ccccc2/C1=N\O`, the ΔTm in [2] is 6.8 °C; in experiment [3], 5.4 °C; in experiment [4], 2.6 °C; in experiment [5] it was 6.9 °C; in experiment [6] it was 5.4 °C; in [7] it was 0.9 °C. Besides, the ΔTm in experiment [8] was determined as 2.7 °C; in experiment [9] it was 2 °C; in experiment [10] it was 0.1 °C; in experiment [11], 0.4 °C; in experiment [12], 3.2 °C.

With `Oc1cccc(-c2nc(N3CCOCC3)c3oc4ncccc4c3n2)c1`, the ΔTm was -0.1 °C in experiment [2]; 0.1 °C in experiment [3]; 0 °C in experiment [4]; -0.3 °C in experiment [5]; -0.3 °C in [6]; 0.7 °C in experiment [7]. The ΔTm in [8] was 0.1 °C; in experiment [9], 0 °C; in [10], -0.1 °C; in experiment [11] it was 0.2 °C; in [12], -0.6 °C.

On to `O=C1Nc2ccc(I)cc2/C1=C\c1cc(Br)c(O)c(Br)c1`, for which the ΔTm in experiment [2] was 1 °C; in experiment [3] it was -0.3 °C; in experiment [4], 0.2 °C; in experiment [5] it was 3.5 °C; in experiment [6], -2.8 °C; in experiment [7], -0.3 °C. The ΔTm in [8] was 2.7 °C; in experiment [9] it was 0.5 °C; in experiment [10], 1.7 °C; in [11], -1.6 °C; in experiment [12], 0.6 °C.

As to `Oc1ccc(-c2nc(-c3ccc(F)cc3)c(-c3ccncc3)[nH]2)cc1`, the ΔTm is -0.7 °C in experiment [2]; 0.6 °C in experiment [3]; 0.2 °C in experiment [4]; -0.2 °C in experiment [5]; -0.2 °C in [6]; -0.2 °C in experiment [7]. Further, the ΔTm worked out at 0.6 °C in experiment [8]; 0.7 °C in experiment [9]; 0 °C in experiment [10]; 0.3 °C in experiment [11]; 0.5 °C in experiment [12].

Turning to `OC[C@H]1O[C@@H](n2cnc3cc(Cl)c(Cl)cc32)[C@H](O)[C@@H]1O`, the ΔTm in experiment [2] was -0.7 °C; in experiment [3], 0.1 °C; in experiment [4] it was 0.2 °C; in experiment [5], 0.6 °C; in experiment [6], -0.2 °C; in [7], -0.4 °C. For the same compound, the shift in melting temperature (ΔTm) in [8] is 1.3 °C; in experiment [9] it was 0.2 °C; in experiment [10], -0.1 °C; in experiment [11], -0.2 °C; in [12], 0 °C.

In the case of `O=C1Nc2ccccc2/C1=C1/Nc2ccccc2/C1=N\O`, the ΔTm in experiment [2] turned out to be 6.6 °C; in experiment [3], 5.3 °C; in experiment [4] it was 5.5 °C; in experiment [5], 5.9 °C; in [6], 6.1 °C; in experiment [7], 2.9 °C. For the same compound, the ΔTm was 7.5 °C in experiment [8]; 3.8 °C in experiment [9]; 1.7 °C in [10]; 2.3 °C in experiment [11]; 4.9 °C in experiment [12].

In the case of `Nc1cc2ncnc(Nc3cccc(Br)c3)c2cc1N`, the shift in melting temperature (ΔTm) in [2] was -0.9 °C; in experiment [3] it was -0.1 °C; in experiment [4], 0.4 °C; in [5] it was -1 °C; in experiment [6], 0.8 °C; in experiment [7], 0.3 °C. Further, the ΔTm in [8] is 0.9 °C; in experiment [9] it was 0.1 °C; in experiment [10] it was -0.3 °C; in experiment [11], 0 °C; in [12] it was 2.5 °C.

Regarding `Nc1ncnc2c1c(I)cn2[C@@H]1O[C@H](CO)[C@@H](O)[C@H]1O`, the thermal shift (ΔTm) in experiment [2] is 1 °C; in experiment [3] it was 0.6 °C; in [4], 2.5 °C; in [5], 2 °C; in experiment [6] it was 0.2 °C; in experiment [7], 1.1 °C. The ΔTm turned out to be 1.7 °C in experiment [8]; 1.7 °C in [9]; 0.1 °C in [10]; 0.1 °C in experiment [11]; 4.2 °C in experiment [12].

In the case of `O=C1Cc2c([nH]c3ccc([N+](=O)[O-])cc23)-c2ccccc2N1`, the ΔTm in experiment [2] is 0.7 °C; in [3] it was -0.1 °C; in [4], 0.8 °C; in experiment [5], 2.5 °C; in experiment [6], 0.4 °C; in experiment [7] it was 3.1 °C. Also, the ΔTm in [8] was 2.4 °C; in [9], 1.8 °C; in experiment [10], 0.2 °C; in experiment [11], 0 °C; in [12] it was 2.4 °C.
